Assay [1] relates to rat pain model variants. Description: Analgesic effect in rat neurogenic pain model variants (overall statement). Format: in vivo, Sprague Dawley rats. The procedure: (§1) The methods of preparation and testing were similar for all the variant pain models described in this example. Male Sprague Dawley rats initially weighing between 150 and 175 grams were housed singly. Baseline behaviors to stimulations of the paw on which the procedure was to be performed were recorded over several sessions after accommodation of 3-4 days, and the results were averaged and used as the baseline control data. The pain behaviors studied were static mechanical allodynia (e.g., light touch stimulation with von Frey fibers 4.56, 4.73, 4.93, and/or 5.07), dynamic mechanical allodynia (e.g., stimulation with moving camel hair brush), and/or mechanical hyperalgesia (e.g., pinprick stimulation).
(§2) After the baseline control data was collected, the specified procedure with a gel was performed near the chosen nerve of each variant group (see Tables 2-6 and 8-10), then the rats were tested post procedurally and intermittently for up to 77 days for behavioral changes (see Tables 2-6 and 8-11) and for their responses to substances with analgesic properties (see Tables 7 and 12).
(§3) The stimuli used to elicit pain behavior were the von Frey fibers, camel hair brush and pinprick, with 6 stimulations of each stimulus. Each variant pain model had the same sequence of stimuli with the positive responses averaged and a student T-test performed for the significance of the post procedural responses as compared to the baseline control data (see Tables 2-6 and 11); and for the post-analgesic responses as compared to the pre-analgesic behavioral data (see Tables 7 and 12).
(§4) The tunnels identified by the above studies were then used for the placement of the biocompatible gels by the chosen peripheral nerves. The gelatinous or viscous substances (i.e., the gels) placed by the peripheral nerves or nerve roots contained collagen (e.g., AVITENE® and gelatin) or hydrogels. The “collagen gel” used in the present study was composed of 0.8 grams of collagen as AVITENE® (microfibrillar collagen hemostat flour, Davol Inc., Cranston, R.I. 02920) and 0.7 grams of collagen as gelatin (Knox gelatin, Kraft Foods, Northfield, Ill. 60093) mixed with 14 cc of normal saline until homogenous. Then the collagen mixture was placed in a PYREX® bowl resting in a paper bowl and covered with a ceramic saucer, then heated for 20 seconds at full power in a microwave. The resulting viscous mixture was kept fluid in a warm water bath at 100-110° F., until used for the placement procedure. The wound hydrogels used in the present study were two types: one contains alginate (SAF-Gel® from ConvaTec of E. R. Squibb & Sons, Princeton, N.J.) and the other contains acemannan from Aloe vera L. (Carrasyn®V from Carrington Laboratories, Irving, Tex.). […] Such hydrogels are used in the care of open dermal wounds as well as in first and second degree burns since they provide a closed moist environment for wound healing.
(§5) The rats were anesthesized with 1.5% to 2% isoflurane for the percutaneous kinesthetic placement of the above “gels” by the specified nerves. Using an angled 23 gauge thin wall 1″ needle, approximately 0.1 cc-0.2 cc of gel was placed percutaneously with kinesthetic technique in the anatomically defined fascial tunnels of the chosen peripheral nerves as described below.
(§6) The doses were given intraperitoneally (I.P.) and behavioral stimulus testing began 40-80 minutes after the dose. The student's t-test (p<0.05) was performed for determining the significance of changes in behaviors associated with pain after the analgesic was administered.

The subject of assay [2] is rat pain model variants. Description: Mechanical hyperalgesia (pinprick) in rat pain model variants. Format: in vivo, Sprague Dawley rats. The conditions noted are these: for Pinprick # STIMULATIONS POST-ANALGESIC: of 6; for Pinprick # STIMULATIONS POST-ANALGESIC, Total: total of 5 rats, pre total 30; for Post Avg, Average Positive stimulations out of 6 total, Stim PP Pin Prick: n=12 rats. The method, then:
as §1, §2, §3, §4, §5, §6

For assay [3], the system named is rat pain model variants. It is filed as in vivo, Sprague Dawley rats. The conditions noted are these: for von Frey F 4.93 # ST[…]-ANALGESIC: of 6. The method, then:
Male Sprague Dawley rats initially weighing between 150 and 175 grams were housed singly. […] The pain behaviors studied were static mechanical allodynia (e.g., light touch stimulation with von Frey fibers 4.56, 4.73, 4.93, and/or 5.07), dynamic mechanical allodynia (e.g., stimulation with moving camel hair brush), and/or mechanical hyperalgesia (e.g., pinprick stimulation).
as §2
The stimuli used to elicit pain behavior were the von Frey fibers, camel hair brush and pinprick, with 6 stimulations of each stimulus.
as §4, §5, §6

The test system of assay [4] is rat pain model variants. Kind of assay: Dynamic mechanical allodynia (camel hair brush) in rat pain model variants. The conditions noted are these: n=12 rats. It is filed as in vivo, Sprague Dawley rats. The procedure: as §1, §2, §3
The tunnels identified by the above studies were then used for the placement of the biocompatible gels by the chosen peripheral nerves. The gelatinous or viscous substances (i.e., the gels) placed by the peripheral nerves or nerve roots contained collagen (e.g., AVITENE® and gelatin) or hydrogels. […]

For assay [5], the system named is Mice with Neural Compression. Description: von Frey fiber and camel hair brush testing for mechanical allodynia in mice with collagen placed by the posterior tibial nerve. The following applies: for Average # Paw Withdrawals: of 10 stimulations, n=10 mice. It is filed as in vivo. The method, then: Biocompatible collagen was prepared for use in the present study. The collagen source was dry gelatin that was prepared using sterile techniques. The dry collagen was measured to 2.5 grams and mixed with 7.5 cc of sterile normal saline. The mixture was heated for 30 seconds in a microwave on 80% power, The mixture was kept soft in warm water (approximately 100 to 110 degrees).
The consistency of the resulting warm collagen was such that it was able to pass through a 23 gauge needle. Humidity and other factors such as temperature can affect the consistency of the substance. 1-cc syringes were used for injection of 0.2 to 0.25 cc of collagen. For the injection, 23 gauge 1″ standard luer lock hypodermic needles were used. The needles were very slightly dulled with a metal file at the tip and edges using sterile technique. The needles were angled at the midpoint with a bevel tip up. The angle was between 30 and 45 degrees, but any angle that allows for easy placement of the injected substance could be used. The needles were then attached to the collagen-filled one cc syringes. The syringes were kept in a warm water bath (100 to 110° F.) to maintain proper gel consistency.
The mice were lightly anesthetized with 1.5 to 2% isoflurane. The mice were then stabilized and aligned such that the left posterior leg was in view. The external anatomic landmarks of the posterior popliteal area were identified. The internal anatomy of this area including the posterior tibial nerve with its artery was mentally visualized with kinesthetic techniques. Kinesthetic techniques are methods that use the kinesthetic sense or the integration of the senses by which movement, mass, turgor, shape, resistance, elasticity, temperature, spatial relationships and position are commonly perceived. It also refers to the integrated use of multiple senses such as touch, proprioception, vision, and hearing. After location of the site for placement of the gel, the needle and syringe were then removed from the warm water bath. The distal portion of the needle was held loosely parallel to the tibia. The needle was allowed to gently penetrate through the dermis by pulling the skin taut over the popliteal fossa. With careful avoidance of tissue resistance, the needle tip, bevel up, was gently slipped beneath the fascial edge of the soleus muscle by the tibial nerve and artery into the deep posterior fascial compartment of the posterior tibial neurovascular tunnel, which is the neurovascular tunnel for the posterior tibial nerve and its proximal branches. When the tip of the needle was at the mid soleus muscle belly, the collagen mixture was slowly injected into the posterior tibial tunnel. The needle was removed and the animals allowed to recover from the anesthetic. All animals were normally moving freely within 20 minutes of anesthesia withdrawal.
Two days after placement of the collagen gel around the nerve, von Frey testing was again performed. Von Frey testing continued for 49 days. […]

Assay [6] has as its system open surgical rat model for CRPS I. The following applies: prior art surgical model, Reyna et al. 1999; cited from earlier work.
[7] abbreviates: Ethosuximide 100 mg/kg IP, 1 rat tibial n. with Acemann hydrogel, pre 6.
Where [8] appears, read: Ethosuximide 100 mg/kg IP, 1 rat tibial n. with Alginate hydrogel, pre 6.

Values joined by “and” are separate entries in the source; they are usually repeats but may differ in a detail not shown here. Identical values can stand only once. “Also recorded” adds a separate entry of the source. Like-named read-outs stand apart in the source and are kept apart here.

Turning to `O=C(c1ccccc1)c1ccc2n1CCC2C(=O)O` (stereo not drawn) [Ketorolac, ketorolac], the “analgesic effect (significance)” value in assay [1] (ketorolac 10% 0.1 cc IP, Table 7) is “no significant analgesic effect; also recorded: no significant analgesic properties”. In addition, the “Pinprick # STIMULATIONS POST-ANALGESIC” value was 6 in assay [2] (Ketorolac 10% 0.1 cc IP, 1 rat peroneal n. with Avitene collagen, pre 6); 6 in assay [2] (Ketorolac 10% 0.1 cc IP, 1 rat tibial n. with Acemannan hydrogel, pre 6); 6 in assay [2] (Ketorolac 10% 0.1 cc IP, 1 rat tibial n. with Alginate hydrogel, pre 6); 5 and 6 in assay [2] (Ketorolac 10% 0.1 cc IP, single rats sciatic n. with Alginate hydrogel (two rats, pre 6 and 6)). Besides, the “Pinprick # STIMULATIONS POST-ANALGESIC, Total” value in assay [2] (Ketorolac 10% 0.1 cc IP, pre vs post p=3.7E-1) worked out at 29.
Consider `CCC1(C)CC(=O)NC1=O` (stereo not drawn) [Ethosuximide, ethosuximide], for which the “analgesic effect (significance)” value in assay [1] (ethosuximide 200 mg/kg IP, Table 12, within 40-80 minutes) is reported as “significant analgesic effects”. Further, the “von Frey F 4.93 # ST[…]-ANALGESIC” value in assay [3] (Ethosuximide 100 mg/kg IP, 1 rat saphenous n. with Avitene collagen, pre 4) is on record as 0; in assay [3] (setting [7]) it was 0; in assay [3] (setting [8]) it was 0; in assay [3] (Ethosuximide 100 mg/kg IP, single rats sciatic n. with Alginate hydrogel (two rats, pre 3 and 6)) it was 0. The “von Frey F 4.93 # ST[…]-ANALGESIC, Total” value in assay [3] (Ethosuximide 100 mg/kg IP, total of 5 rats, pre total 25, pre vs post p=1.43E-3) is on record as 0. The “Post Avg, Average Positive stimulations out of 6 total, Stim A vF 4.56” value in assay [3] (Ethosuximide 200 mg/kg (IP), all rats of Tables 8-10, n=12, Pre Avg 1.83, p=2.9E-3) is reported as 0.5. In addition, the “Post Avg, Average Positive stimulations out of 6 total, Stim B vF 4.93” value in assay [3] (Ethosuximide 200 mg/kg (IP), n=12 rats, Pre Avg 2.92, p=8.4E-5) is reported as 0.58. For the same molecule, in assay [3] (Ethosuximide 200 mg/kg (IP), n=12 rats, Pre Avg 3.92, p=1.4E-5), the “Post Avg, Average Positive stimulations out of 6 total, Stim C vF 5.07” value was determined as 0.83. Also, the “Post Avg, Average Positive stimulations out of 6 total, Stim S Brush” value in assay [4] (Ethosuximide 200 mg/kg (IP), Pre Avg 4.17, p=1.1E-4) is listed as 1.17. Also, the “Pinprick # STIMULATIONS POST-ANALGESIC” value in assay [2] (Ethosuximide 100 mg/kg IP, 1 rat saphenous n. with Avitene collagen, pre 6) was 1; in assay [2] (setting [7]), 0; in assay [2] (setting [8]), 2; in assay [2] (Ethosuximide 100 mg/kg IP, single rats sciatic n. with Alginate hydrogel (two rats, pre 6 and 6)), 0 and 1. Further, the “Pinprick # STIMULATIONS POST-ANALGESIC, Total” value in assay [2] (Ethosuximide 100 mg/kg IP, pre vs post p=1.6E-4) is 4. Besides, in assay [2] (Ethosuximide 200 mg/kg (IP), Pre Avg 5.25, p=1.4E-8), the “Post Avg, Average Positive stimulations out of 6 total, Stim PP Pin Prick” value worked out at 1.75.
On to `NCC1(CC(=O)O)CCCCC1` [gabapentin], for which the “Average # Paw Withdrawals” value was determined as 6.86 in assay [5] (gabapentin 25 mg/kg IP, post procedure day 58 (9.14 before dose)) and 5.81 in assay [5] (gabapentin 40 mg/kg IP, post procedure day 65 (9.19 before dose)). The “Analgesic response (mechanical allodynia)” value in assay [5] (gabapentin 25 or 40 mg/kg IP) is listed as “Analgesic responses were shown”. Further, the “analgesic effect (significance)” value in assay [1] (gabapentin 50 mg/kg IP, Table 12, within 40-80 minutes) was “significant analgesic effects”; in assay [1] (gabapentin 50 mg/kg IP, Table 12, within 40-80 minutes, listed as Gabapentin), “significant analgesic effect”. The “Post Avg, Average Positive stimulations out of 6 total, Stim A vF 4.56” value in assay [3] (Gabapentin 50 mg/kg (IP), n=12 rats, Pre Avg 2.0, p=8.5E-5) was determined as 0.25. Moreover, the “Post Avg, Average Positive stimulations out of 6 total, Stim C vF 5.07” value in assay [3] (Gabapentin 50 mg/kg (IP), n=12 rats, Pre Avg 2.42, p=4.4E-4) is recorded as 0.75. The “Post Avg, Average Positive stimulations out of 6 total, Stim B vF 4.93” value in assay [3] (Gabapentin 50 mg/kg (IP), n=12 rats, Pre Avg 2.58, p=5.8E-5) was determined as 0.5. For the same molecule, the “Post Avg, Average Positive stimulations out of 6 total, Stim S Brush” value in assay [4] (Gabapentin 50 mg/kg (IP), Pre Avg 3.25, p=9.5E-4) was found to be 1.25. Besides, the “Post Avg, Average Positive stimulations out of 6 total, Stim PP Pin Prick” value in assay [2] (Gabapentin 50 mg/kg (IP), Pre Avg 5.08, p=2.6E-5) turned out to be 2.25. For the same molecule, in assay [6], the analgesic response entry was “exhibited an analgesic response”.

(Values after patent US7388124B2 (priority 2001, dated 2008).)
